Test results: patent publication US20260115265A1, “METHODS AND COMPOSITIONS FOR PREVENTING OR TREATING FOOD ALLERGIES” (Revolo Biotherapeutics Limited, priority 2022, published 2026)
Like-named read-outs stand apart in the source and are kept apart here. Ends that are not written are not given here.

Assay: Serum/plasma pharmacokinetics (half-life)
Assay type: in vivo

DGSVVVNKVSELPAGHGLNVNTLSYGDLAAD ['1104]
half-life (in vivo, across species, read-out: half-life): 10 to 15 min
half-life (serum, read-out: serum PK): ~15 min
